Ends that are not written are not given here.
Key:
[1] = system: Healthy AT MSCs differentiated into adipocytes; assay: Healthy AT MSCs already differentiated into adipocytes, then treated ± TGFβ ± CSD, Western blotting; type: cell-based, human
Method: To induce MSCs or adipocytes into a profibrotic phenotype, the cells were cultured in the presence of TGFβ.
(§1) Adipogenic differentiation was induced by incubating cells for 3 cycles of 3 days in Adipocyte Induction Medium (Lonza) plus 1 day in Maintenance Medium. Adipogenic differentiation was analyzed by IHC and/or Western blotting using appropriate antibodies and by staining with an Oil Red 0 kit (Biovision) according to the manufacturer's instructions.
MSC cultures were rinsed with PBS. Lysis Buffer (20 mM Tris-HCl (pH 7.5)/1% NP-40/100 mM NaCl/5 mM EDTA/2 mM KCl) supplemented with 1 mM phenylmethylsulfonyl fluoride, protease inhibitor mixture Set V (Calbiochem), and phosphatase inhibitors (10 mM sodium pyrophosphate, 5 mM NaF, 10 mM beta-glycerophosphate, and 10 mM sodium orthovanadate) was added to the plates, the cells scraped into the buffer, frozen, thawed, and the extract clarified by centrifugation (10 min, 12,000 rpm, RT). The protein content of the supernatants was determined, sample buffer added, and the samples were boiled. 5 to 40 μg of protein was loaded per lane depending on the avidity of the primary antibody to be used for detection.

TGFβ-activated monocytes = assay: monocyte migration toward SDF-1; type: cell-based, human
Method: Migration experiments were performed using TGFβ-activated monocytes and 100 ng/ml of the chemokine SDF-1 as chemoattractant (Tourkina et al., 2011, Fibrogenesis Tissue Repair, 4:15). Cells were treated with the indicated concentrations of the indicated peptides. Cells that had migrated were counted in six high power fields per filter. Migration is expressed in terms of “Inhibition of Migration”. Each experiment included Control monocytes and the same monocytes treated with TGFβ which enhanced their rate of migration approximately three-fold. […] Intermediate degrees of inhibition were quantified on a linear basis.
To study the structure-activity relationship of CSD to identify an optimal version to be developed for treating fibrotic diseases in human patients, subdomains of CSD were tested for their ability to inhibit the migration of human monocytes. Monocytes from healthy subjects were used which, when activated using TGFβ, migrate at an enhanced rate similar to monocytes from SSc patients (Tourkina et al., 2011, Fibrogenesis Tissue Repair, 4:15).

Healthy AT MSCs = assay: ASMA staining (IHC) of Healthy AT MSCs treated with CSD, scrambled CSD and TGFβ; type: cell-based, human
Description: Human MSCs were derived from abdominal fat tissue. SSc ILD and SSc No ILD MSCs are a generous gift from Dr. Del Papa (Milan, Italy). Healthy human MSCs are from Dr. Del Papa and from Lonza. Human MSCs were maintained in the medium previously described (Capelli C. et al., 2017, Cell Transplant. 26:841-854). Early passage cells (passage 1 to 3) were used in all experiments except when late passage cells (passage 5) were specifically used in FIG. 1F.
To induce fibrogenic differentiation in healthy human and mouse MSCs, cells were incubated for 10 days in Maintenance Medium supplemented with TGFβ (10 ng/ml). To determine the effects of knocking down caveolin-1 expression, healthy MSCs were treated with siRNA targeting caveolin-1 according to the manufacturer's instructions (Dharmacon).

bleomycin-treated mice [2] = assay: bleomycin minipump mouse model, lung fibrosis (Ashcroft score, ASMA and HSP47 IHC); type: in vivo, C57BL/6 mice
Description: (§2) To create a mouse model for autologous MSC treatment, adipose-derived MSCs were isolated from C57/BL6 mice treated with bleomycin, expanded in vitro, then injected systemically via the retro-orbital sinus or subcutaneously into host C57/BL6 mice that had been treated with bleomycin.
(§3) The Pump Model (Lee R. et al., 2014, Am. J. Physio. Lung Cell. Mol. Physio. 306:L736-748) is used both to generate MSC donors and host mice receiving MSC therapy. Briefly; under isoflurane anesthesia, mini-osmotic pumps (ALZET 1007D; DURECT Corporation, Cupertino, Calif.) containing 100 μl of bleomycin (67 U/kg) or saline are implanted posterior to the scapulae of 8-10 week old C57BL/6 mice. Pumps deliver 0.5 μl/h for 7 days, then are removed by day 10 per the manufacturer's instructions.
Mice were treated with bleomycin or vehicle using osmotic minipumps (Lee et al., 2014, Am J Physiol Lung Cell Mol Physiol, 306:L736-L748). […] Tissue morphology was quantified by the Ashcroft Method (Ashcroft et al., 1988, J Clin Pathol, 41:467-70). […]
On day 24, under anesthesia the rib cage was opened, mice systemically perfused via the left ventricle with PBS, then further perfused with Z-Fix (Anatech). […] Lung tissue morphology was evaluated by the Ashcroft Method (Ashcroft T. et al., 1988, J. Clin. Pathol. 41:467-470). Skin tissue morphology was evaluated in terms of the thickness of the dermis and the subdermal adipose layer. […]

mice = mice receiving CSD treatment; cited from earlier work
SSc AT MSCs = assay: adipocyte induction of SSc AT MSCs ± CSD or scrambled peptide (IHC for ASMA and FABP4); type: cell-based, human; details: treatment during adipocyte induction
Method: MSCs from healthy and SSc donors were treated with adipocyte induction medium (AIM), from Lonza to induce adipogenesis.
as §1

animal model for ILD = details: cited from earlier work
bleomycin-treated mice [3] = assay: bleomycin minipump mouse model, skin fibrosis (dermal thickness, FABP4 IHC); type: in vivo, C57BL/6 mice
Description: as §2
as §3, with “Pumps deliver 0.5 μl/h for 7 days, then are removed by day 10 per the manufacturer's instructions.” left out
On day 24, under anesthesia the rib cage was opened, mice systemically perfused via the left ventricle with PBS, then further perfused with Z-Fix (Anatech). […] Lung tissue morphology was evaluated by the Ashcroft Method (Ashcroft T. et al., 1988, J. Clin. Pathol. 41:467-470). Skin tissue morphology was evaluated in terms of the thickness of the dermis and the subdermal adipose layer. Tissue sections were also analyzed by IHC using routine methods (Lee R. et al., 2014, Am. J. Physio. Lung Cell. Mol. Physio. 306:L736-748; Lee R. et al., 2014, Frontiers in Pharma. 5:140; Lee R. et al., 2015, Fibrogen. Tissue Repair, 8:11) and appropriate antibodies.

[4] = TGFβ after adipocyte differentiation

Compound	AKT activation [1, 4]	FABP4 expression [1, 4]	fibrogenic effect of TGFβ: increased ASMA expression [1, 4]	fibrogenic effect of TGFβ: increased Col I expression [1, 4]	p38 activation [1, 4]	PPARγ expression ([1]; differentiated adipocytes)	caveolin-1 expression ([1]; differentiated adipocytes)	TGFβ-induced migration (TGFβ-activated monocytes; 50 pg/ml peptide)	inhibition of TGFβ-induced migration (TGFβ-activated monocytes; levels as low as 0.005 pg/ml)	enhanced ASMA expression in cells treated with TGFβ (Healthy AT MSCs; healthy MSCs + TGFβ)	baseline expression of ASMA (Healthy AT MSCs; healthy MSCs without TGFβ)	ASMA levels in the bleomycin-treated lung (bleomycin-treated mice [2])	share of treated mice with beneficial effect on lung morphology (mice)	number of ASMA+ cells (SSc AT MSCs)	number of FABP4+ cells (SSc AT MSCs)	dose working in inhibiting fibrosis (animal model for ILD) [mg/kg/day]	effectiveness relative to pirfenidone in inhibiting fibrosis (animal model for ILD) [fold]	loss of the intradermal adipose layer (FABP4 staining) (bleomycin-treated mice [3])
DGIWKASFTTFTVTKYWFYR-NH2 [CSD, caveolin-1 scaffolding domain peptide, amino acids 82-101 of caveolin-1]	restored	did not restore	reversed	reversed	inhibited	Neither TGFβ nor CSD affected	Neither TGFβ nor CSD affected	decreased essentially to the uninduced level	Substantial inhibition	inhibited	inhibited	greatly decreased	greater than 50%	decreased	increased	1	300	reversed
Cc1ccc(=O)n(-c2ccccc2)c1 [pirfenidone, reference compound]	–	–	–	–	–	–	–	–	–	–	–	–	–	–	–	300	–	–

From patent US20190224243A1 (MUSC Foundation for Research Development, priority 2018, published 2019)
